According to ChEMBL document CHEMBL4842340, “Development of Cagrilintide, a Long-Acting Amylin Analogue” (J Med Chem, 2021):
Converted amounts (≈) assume the structure as drawn. *1 amine or outer side, *2 acyl side, *3 side chain or, on linkers, in order; H or OH if unused. Where a SMILES comes first, the peptide text is derived from it. Bridges are numbered along the chain shown (N, C = ends). [ ]: non-standard residue; d: D form. The star is where a group is joined. X1 = O=C(NC(=O)[C@H](Cc1cnc[nH]1)N[*:1])[C@@H](Cc1cnc[nH]1)C(=O)[*:2]; C20 diacid = O=C(O)CCCCCCCCCCCCCCCCCCC(=O)*; γGlu = O=C(O)[C@H](CCC(=O)[*:2])N[*:1]

Experiments:
Homo sapiens = species on record: Homo sapiens; assay: Ratio of EC50 for human calcitonin receptor expressed in BHK570 cells to EC50 for human AMY3R (CT+RAMP3) expressed in Hollex1 cells; type: cell-based
[1] = Solubility of the compound in lactate at pH 4 by UPLC analysis; type: physicochemical; conditions: lactate buffer
[2] = Solubility of the compound in bis-tris propane at pH 6 by UPLC analysis; type: physicochemical; conditions: bis-tris propane buffer
[3] = Solubility of the compound in lactate at pH 3 by UPLC analysis; type: physicochemical; conditions: lactate buffer
[4] = Solubility of the compound in bis-tris propane at pH 8 by UPLC analysis; type: physicochemical; conditions: bis-tris propane buffer
Rattus norvegicus [5] = assay: Reduction in food intake in Sprague-Dawley rat at 3 nmol/kg, sc administered as single dose measured upto 24 hrs relative to control; type: functional; parameters: scale not given: the % may be the effect or the level left; conditions: time hrs <=24
Rattus norvegicus [6] = species on record: Rattus norvegicus; assay: Ratio of EC50 for rat calcitonin receptor expressed in BHK-13 cells to EC50 for rat AMY3R (CT+RAMP3) expressed in tk-ts13 cells; type: cell-based
[7] = Solubility of the compound in bis-tris propane at pH 7 by UPLC analysis; type: physicochemical; conditions: bis-tris propane buffer
Insulin (Homo sapiens) [8] = target: Insulin (Homo sapiens) (UniProt P01308); assay: Effect on insulin (unknown origin) amyloid fibril formation assessed as peptide recovery in glycyl-glycine buffer at pH 4 measured after 45 hrs by thioflavin-T fluorescence assay relative to control; parameters: concentration or dose not given beside the values
Insulin (Homo sapiens) [9] = target: Insulin (Homo sapiens) (UniProt P01308); assay: Effect on insulin (unknown origin) amyloid fibril formation assessed as lag time in glycyl-glycine buffer at pH 4 measured after 45 hrs by thioflavin-T fluorescence assay
[10] = Agonist activity at rat calcitonin receptor expressed in BHK-13 cells assessed as increase in intracellular cAMP concentration incubated for 25 mins by CRE luciferase reporter gene assay; type: cell-based; conditions: BHK-13, 25 min
[11] = Agonist activity at human calcitonin receptor expressed in BHK570 cells assessed as increase in intracellular cAMP concentration incubated for 3 hrs in absence of albumin by CRE luciferase reporter gene assay; type: cell-based; conditions: BHK570, 3 h
[12] = Agonist activity at human AMY3R (CT+RAMP3) expressed in Hollex1 cells incubated for 3 hrs by luminescence assay; type: cell-based; conditions: Hollex1, 3 h
[13] = Solubility of the compound in lactate at pH 5 by UPLC analysis; type: physicochemical; conditions: lactate buffer
[14] = Solubility of the compound in bis-tris propane at pH 7.5 by UPLC analysis; type: physicochemical; conditions: bis-tris propane buffer
Rattus norvegicus [15] = assay: Reduction in food intake in Sprague-Dawley rat at 3 nmol/kg, sc administered as single dose measured after 24 to 48 hrs relative to control; type: functional; parameters: scale not given: the % may be the effect or the level left; conditions: time 24-48 hrs
[16] = Agonist activity at rat AMY3R (CT+RAMP3) expressed in tk-ts13 cells assessed as increase in intracellular cAMP level incuabted for 25 mins by CRE luciferase reporter gene assay; type: cell-based; conditions: tk-ts13, 25 min
[17] = Solubility of the compound in bis-tris propane at pH 6.5 by UPLC analysis; type: physicochemical; conditions: bis-tris propane buffer

Chain of Insulin (Homo sapiens) (P01308 whole entry): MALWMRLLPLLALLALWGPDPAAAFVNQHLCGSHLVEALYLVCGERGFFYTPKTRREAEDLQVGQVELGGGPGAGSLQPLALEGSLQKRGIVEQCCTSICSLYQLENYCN

solubility [1] [µM] | solubility [2] [µM] | solubility [3] [µM] | solubility [4] [µM] | solubility [7] [µM] | Activity (Insulin (Homo sapiens) [8]) [%] | TIME (Insulin (Homo sapiens) [9]) [h] | EC50 [10] [nM] | EC50 [11] [nM] | EC50 [12] [nM] | solubility [13] [µM] | solubility [14] [µM] | EC50 [16] [nM] | solubility [17] [µM] | Compound | Ratio EC50 (Homo sapiens) | Activity (Rattus norvegicus [5]) [%] | Ratio EC50 (Rattus norvegicus [6]) | Activity (Rattus norvegicus [15]) [%]
200 (≈ 962 µg/mL) | 200 (≈ 962 µg/mL) | 200 (≈ 962 µg/mL) | 3 (≈ 14.4 µg/mL) | 2 (≈ 9.62 µg/mL) | 14 | 3 | 1.29 | 0.157 | 0.096 | 200 (≈ 962 µg/mL) | 1 (≈ 4.81 µg/mL) | 0.261 | 57 (≈ 274 µg/mL) | CC[C@H](C)[C@H](NC(=O)[C@@H]1CCCN1C(=O)CNC(=O)[C@H](Cc1ccccc1)NC(=O)[C@H](CC(N)=O)NC(=O)[C@H](CC(N)=O)NC(=O)[C@H](CO)NC(=O)[C@H](CO)NC(=O)[C@H](Cc1cnc[nH]1)NC(=O)[C@H](Cc1cnc[nH]1)NC(=O)[C@H](CC(C)C)NC(=O)[C@H](Cc1ccccc1)NC(=O)[C@H](CCC(=O)O)NC(=O)[C@H](C)NC(=O)[C@H](CC(C)C)NC(=O)[C@H](CCCNC(=N)N)NC(=O)[C@H](CCC(N)=O)NC(=O)[C@@H](NC(=O)[C@H](C)NC(=O)[C@@H]1CSSC[C@H](NC(=O)[C@H](Cc2cnc[nH]2)NC(=O)[C@H](Cc2cnc[nH]2)C(=O)NC(=O)[C@H](Cc2cnc[nH]2)NC(=O)CC[C@H](NC(=O)CCCCCCCCCCCCCCCCCCC(=O)O)C(=O)O)C(=O)N[C@@H](CCCNC(=N)N)C(=O)N[C@@H]([C@@H](C)O)C(=O)N[C@@H](C)C(=O)N[C@@H]([C@@H](C)O)C(=O)N1)[C@@H](C)O)C(=O)N[C@@H](CC(C)C)C(=O)N1CCC[C@H]1C(=O)N1CCC[C@H]1C(=O)N[C@H](C(=O)N[C@@H](CC(N)=O)C(=O)N[C@H](C(=O)NCC(=O)N[C@@H](CO)C(=O)N[C@@H](CC(N)=O)C(=O)N[C@H](C(=O)N[C@@H](Cc1ccc(O)cc1)C(N)=O)[C@@H](C)O)C(C)C)[C@@H](C)O ({C20 diacid-γGlu}-[X1]HCRTATCATQRLAEFLHHSSNNFGPILPPTNVGSNTY-NH2; disulfide 3-8) | 2 | 26 | 5 | 5
200 (≈ 891 µg/mL) | 200 (≈ 891 µg/mL) | 200 (≈ 891 µg/mL) | 200 (≈ 891 µg/mL) | 200 (≈ 891 µg/mL) | 0 | 3 | – | 0.657 | 0.377 | – | 200 (≈ 891 µg/mL) | – | 200 (≈ 891 µg/mL) | CC[C@H](C)[C@H](NC(=O)[C@@H]1CCCN1C(=O)CNC(=O)[C@H](Cc1ccccc1)NC(=O)[C@H](CC(N)=O)NC(=O)[C@H](CC(N)=O)NC(=O)[C@H](CO)NC(=O)[C@H](CO)NC(=O)[C@H](Cc1cnc[nH]1)NC(=O)[C@H](Cc1cnc[nH]1)NC(=O)[C@H](CC(C)C)NC(=O)[C@H](Cc1ccccc1)NC(=O)[C@H](CCC(=O)O)NC(=O)[C@H](C)NC(=O)[C@H](CC(C)C)NC(=O)[C@H](CCCNC(=N)N)NC(=O)[C@H](CCC(N)=O)NC(=O)[C@@H](NC(=O)[C@H](C)NC(=O)[C@@H]1CSSC[C@H](NC(=O)[C@H](CCC(=O)O)NC(=O)CC[C@H](NC(=O)CCCCCCCCCCCCCCCCCCC(=O)O)C(=O)O)C(=O)N[C@@H](CC(N)=O)C(=O)N[C@@H]([C@@H](C)O)C(=O)N[C@@H](C)C(=O)N[C@@H]([C@@H](C)O)C(=O)N1)[C@@H](C)O)C(=O)N[C@@H](CC(C)C)C(=O)N1CCC[C@H]1C(=O)N1CCC[C@H]1C(=O)N[C@H](C(=O)N[C@@H](CC(N)=O)C(=O)N[C@H](C(=O)NCC(=O)N[C@@H](CO)C(=O)N[C@@H](CC(N)=O)C(=O)N[C@H](C(=O)N[C@@H](Cc1ccc(O)cc1)C(N)=O)[C@@H](C)O)C(C)C)[C@@H](C)O ({C20 diacid-γGlu}-ECNTATCATQRLAEFLHHSSNNFGPILPPTNVGSNTY-NH2; disulfide 2-7) | 2 | 15 | – | 5
– | – | 200 (≈ 884 µg/mL) | – | 7 (≈ 31 µg/mL) | 0 | 14 | – | 0.218 | 0.107 | – | – | – | 4 (≈ 17.7 µg/mL) | CC(C)C[C@H](NC(=O)[C@H](CCCNC(=N)N)NC(=O)[C@H](CCC(N)=O)NC(=O)[C@@H](NC(=O)[C@H](C)NC(=O)[C@@H]1CSSC[C@H](NC(=O)[C@H](Cc2cnc[nH]2)NC(=O)CC[C@H](NC(=O)CCCCCCCCCCCCCCCCCCC(=O)O)C(=O)O)C(=O)N[C@@H](CC(N)=O)C(=O)N[C@@H]([C@@H](C)O)C(=O)N[C@@H](C)C(=O)N[C@@H]([C@@H](C)O)C(=O)N1)[C@@H](C)O)C(=O)N[C@@H](C)C(=O)N[C@@H](CCC(=O)O)C(=O)N[C@@H](Cc1ccccc1)C(=O)N[C@@H](CC(C)C)C(=O)N[C@@H](Cc1cnc[nH]1)C(=O)N[C@@H](CCCNC(=N)N)C(=O)N[C@@H](CO)C(=O)N[C@@H](CO)C(=O)N[C@@H](CC(N)=O)C(=O)N[C@@H](CC(N)=O)C(=O)N[C@@H](Cc1ccccc1)C(=O)NCC(=O)N[C@@H](C)C(=O)N1CCC[C@H]1C(=O)N[C@@H](CC(C)C)C(=O)N[C@@H](CO)C(=O)N[C@@H](CO)C(=O)N[C@H](C(=O)N[C@@H](CC(N)=O)C(=O)N[C@H](C(=O)NCC(=O)N[C@@H](CO)C(=O)N[C@@H](CC(N)=O)C(=O)N[C@H](C(=O)N[C@@H](Cc1ccc(O)cc1)C(N)=O)[C@@H](C)O)C(C)C)[C@@H](C)O ({C20 diacid-γGlu}-HCNTATCATQRLAEFLHRSSNNFGAPLSSTNVGSNTY-NH2; disulfide 2-7) | 2 | – | – | –
200 (≈ 900 µg/mL) | 200 (≈ 900 µg/mL) | 200 (≈ 900 µg/mL) | 80 (≈ 360 µg/mL) | 200 (≈ 900 µg/mL) | 100 | 45 | 2.54 | 0.379 | 0.111 | 200 (≈ 900 µg/mL) | – | 0.49 | 200 (≈ 900 µg/mL) | CC[C@H](C)[C@H](NC(=O)[C@@H]1CCCN1C(=O)CNC(=O)[C@H](Cc1ccccc1)NC(=O)[C@H](CC(N)=O)NC(=O)[C@H](CC(N)=O)NC(=O)[C@H](CO)NC(=O)[C@H](CO)NC(=O)[C@H](Cc1c[nH]cn1)NC(=O)[C@H](CCCNC(=N)N)NC(=O)[C@H](CC(C)C)NC(=O)[C@H](Cc1ccccc1)NC(=O)[C@H](CCC(=O)O)NC(=O)[C@H](C)NC(=O)[C@H](CC(C)C)NC(=O)[C@H](CCCNC(=N)N)NC(=O)[C@H](CCC(N)=O)NC(=O)[C@@H](NC(=O)[C@H](C)NC(=O)[C@@H]1CSSC[C@H](NC(=O)[C@H](CCCCN)NC(=O)CC[C@H](NC(=O)CCCCCCCCCCCCCCCCCCC(=O)O)C(=O)O)C(=O)N[C@@H](CC(N)=O)C(=O)N[C@@H]([C@@H](C)O)C(=O)N[C@@H](C)C(=O)N[C@@H]([C@@H](C)O)C(=O)N1)[C@@H](C)O)C(=O)N[C@@H](CC(C)C)C(=O)N1CCC[C@H]1C(=O)N1CCC[C@H]1C(=O)N[C@H](C(=O)N[C@@H](CC(N)=O)C(=O)N[C@H](C(=O)NCC(=O)N[C@@H](CO)C(=O)N[C@@H](Cc1cnc[nH]1)C(=O)N[C@H](C(=O)N[C@@H](Cc1ccc(O)cc1)C(N)=O)[C@@H](C)O)C(C)C)[C@@H](C)O ({C20 diacid-γGlu}-KCNTATCATQRLAEFLRHSSNNFGPILPPTNVGSHTY-NH2; disulfide 2-7) | 3 | 17 | 5 | 0
